US4322420A, “Method of using 4-anilinoquinazoline derivatives as analgesic and anti-inflammatory agents” (Sankyo Company Limited, priority 1978, dated 1982)
Like-named read-outs stand apart in the source and are kept apart here.

Assays:
[1] = system: bradykinin-induced nociceptive stimulus; experiment: Test for analgesic activity (bradykinin-induced nociceptive stimulus, oral administration); format: in vivo, female Hartley guinea pigs; details: Cavia porcellus, read-out: ID50 Analgesic Activity
Method: This test employs a bradykinin-induced nociceptive stimulus and is a partially modified version of the test described by Deffenu [J. Pharm. Pharmac. […] The test animals were female Hartley guinea pigs having a body weight of from 350 g to 400 g. The guinea pigs were divided into groups, each group containing from 5 to 10 animals. The test animals were cannulated into the carotid artery retrogradely under the anesthesia induced by intraperitoneal injection of 20 mg/kg of pentobarbital. The guinea pigs were allowed to recover from the anesthesia for at least 3 hours before the tests commenced.
The test compounds listed in the following Table 1 were administered orally. Immediately before administration of each test compound and then 15, 30, 60, 90 and 120 minutes after administration, each guinea pig was administered with 0.5 μg of bradykinin through the cannula. Turning of the head or twisting of the front legs upon injection was taken as a sign of nociceptive response. The test compounds were administered at various doses and the inhibition rate was determined accordingly.
(§1) For both of the above tests, the ID50 was calculated by the method of Litchfield and Wilcoxon [J. Pharmacol. Exptl. Therap.

[2] = system: carrageenin-induced oedema of the right hind paw; experiment: Test for anti-inflammatory activity (carrageenin-induced paw oedema, oral administration); format: in vivo, Male Wistar-Imamichi rats; details: Rattus norvegicus, read-out: ID50 Anti-inflammatory Activity
Method: Male Wistar-Imamichi rats, each weighing approximately 150 g, were used in these experiments and were divided into groups, each containing 5 animals. Each of the test compounds listed in Table 1 was administered orally, at various doses, to the rats and then, 30 minutes after oral administration,0.05 ml of a 1% w/v carrageenin suspension was subcutaneously injected into the sole of the right hind paw to induce oedema. The volume of the paw was measured both before and 3 hours after injection of the carrageenin by the method of Winder et al [Arch. Int. Pharmacodyn. […] The difference between the volume of the paw before and after injection was defined as the oedema intensity.
as §1

[3] = per os, guinea pigs, 0.5 μg bradykinin via carotid cannula before and 15, 30, 60, 90 and 120 min after dosing, Litchfield and Wilcoxon
[4] = per os, rats, 0.05 ml of 1% w/v carrageenin 30 min after dosing, paw volume 3 hours after injection, Litchfield and Wilcoxon

Structure (SMILES)	ED50 [1]	ED50 [2]	ED50 [1, 3]	ED50 [2, 4]
CC(=O)Oc1ccccc1C(=O)O [Aspirin, reference compound]	280 mg/kg	145 mg/kg	–	–
Clc1ccc2c(Nc3ccccc3)ncnc2c1 [Compound 5, 4-Anilino-7-chloroquinazoline]	–	–	25 mg/kg	28 mg/kg
FC(F)(F)c1ccc2c(Nc3ccccc3)ncnc2c1 [Compound 17, 4-Anilino-7-trifluoromethylquinazoline]	–	–	16.5 mg/kg	20 mg/kg
CN(c1ccccc1)c1ncnc2cc(Cl)ccc12 [Compound 55, 7-Chloro-4-(N-methylanilino)quinazoline]	–	–	50 mg/kg	36 mg/kg
CN(c1ccccc1)c1ncnc2cc(C(F)(F)F)ccc12 [Compound 73, 4-(N-Methylanilino)-7-trifluoromethylquinazoline]	–	–	31 mg/kg	15.5 mg/kg
Cc1cccc(Nc2ccccc2C(=O)O)c1C [Mefenamic acid, reference compound]	–	–	72 mg/kg	50 mg/kg
